Data reported in patent US4971967A, “Quinolinecarboxylic acid derivatives, antibacterial compositions and use” (Kanebo Ltd, priority 1989, dated 1990).
Converted amounts (≈) assume the structure as drawn. Where a name gives a salt, the structure may show the parent alone. Read-outs that look alike come from different tables or passages of the source.

Experiments:
Assay type in all cases: cell-based
[1] = tested on: Staphylococcus epidermidis IAM-1296; assay: Antibacterial activity (MIC), S. epidermidis IAM-1296; conditions: for MIC: Staphylococcus epidermidis
Method: (§1) The compounds of the present invention (A, C, D, E, F, G, H, I, J, L, O and P) and the known compound (X) as reference were dissolved in 0.1 N aqueous sodium hydroxide to prepare a solution of 5000 μg/ml in concentration. The compounds of the present invention (B, K, M and N) and the known compound (Y) were dissolved in sterilized distilled water to prepare a solution of 5000 μg/ml in concentration. Each solution was diluted with sterilized distilled water to prepare a standard solution with a concentration of each test compound: 1000 μg/ml. The test was carried out by a method as appointed by Japan Society of Chemotherapy [cf. Chemotherapy, 29, 76-79 (1981)(TOKYO)].

[2] = tested on: Klebsiella pneumoniae PCI-602; assay: Antibacterial activity (MIC), Klebsiella pneumoniae PCI-602; conditions: PCI602; Klebsiella pneumoniae PCI-602, Gram -; read-out: Minimum inhibitory concentration (MIC)
Method: as §1

[3] = tested on: Streptococcus faecalis IID 682; assay: Antibacterial activity (MIC), Streptococcus faecalis IID 682; conditions: for MIC: Enterococcus faecalis, IID682, Streptococcus faecalis IID 682, Gram +, read-out: Minimum inhibitory concentration (MIC)
Method: as §1

[4] = tested on: Escherichia coli NIHJ JC-2; assay: Antibacterial activity (MIC), E. coli NIHJ JC-2
Method: as §1

[5] = tested on: Acinetobacter calcoaceticus AC 54; assay: Antibacterial activity (MIC), Acinetobacter calcoaceticus AC 54; conditions: AC54; Acinetobacter calcoaceticus AC 54, Gram -; read-out: Minimum inhibitory concentration (MIC)
Method: as §1

[6] = tested on: Enterobacter aerogenes ATCC 13048; assay: Antibacterial activity (MIC), Enterobacter aerogenes ATCC 13048; conditions: Klebsiella aerogenes
Method: as §1

[7] = tested on: Salmonella typhimurium IID 971; assay: Antibacterial activity (MIC), Salmonella typhimurium IID 971; conditions: Salmonella enterica, read-out: Minimum inhibitory concentration (MIC)
Method: as §1

[8] = tested on: Morganella morganii IFO 3848; assay: Antibacterial activity (MIC), Morganella morganii IFO 3848; conditions: for MIC: Morganella morganii, IFO3848, Morganella morganii IFO 3848, Gram -, read-out: Minimum inhibitory concentration (MIC); for Minimum inhibitory concentration (MIC): Morganella morganii IFO 3848, Gram -, hydrochloride
Method: as §1

[9] = tested on: Pseudomonas aeruginosa E-2; assay: Antibacterial activity (MIC), P. aeruginosa E-2; conditions: E2; Pseudomonas aeruginosa E-2, Gram -; read-out: Minimum inhibitory concentration (MIC)
Method: as §1

[10] = tested on: Staphylococcus aureus IID 803; assay: Antibacterial activity (MIC), S. aureus IID 803
Method: as §1

[11] = tested on: Proteus mirabilis IFO 3849; assay: Antibacterial activity (MIC), Proteus mirabilis IFO 3849; conditions: IFO3849; Proteus mirabilis IFO 3849, Gram -; read-out: Minimum inhibitory concentration (MIC)
Method: as §1

[12] = tested on: Micrococcus luteus ATCC 9341; assay: Antibacterial activity (MIC), Micrococcus luteus ATCC 9341; conditions: ATCC9341; Micrococcus luteus ATCC 9341, Gram +; read-out: Minimum inhibitory concentration (MIC)
Method: as §1

[13] = tested on: Serratia marcescens IAM 1184; assay: Antibacterial activity (MIC), Serratia marcescens IAM 1184; conditions: for MIC: Serratia marcescens, IAM1184, Serratia marcescens IAM 1184, Gram -, read-out: Minimum inhibitory concentration (MIC)
Method: as §1

Shigella sonnei EW-33 = assay: Antibacterial activity (MIC), Shigella sonnei EW-33; conditions: for MIC: Shigella sonnei, EW33, Shigella sonnei EW-33, Gram -, read-out: Minimum inhibitory concentration (MIC)
Method: as §1

Escherichia coli KC-14 = assay: Antibacterial activity (MIC), E. coli KC-14
Method: as §1

[14] = tested on: Pseudomonas aeruginosa NCTC 10490; assay: Antibacterial activity (MIC), P. aeruginosa NCTC 10490; conditions: for MIC: Pseudomonas aeruginosa, NCTC10490, Pseudomonas aeruginosa NCTC 10490, Gram -, read-out: Minimum inhibitory concentration (MIC)
Method: as §1

[15] = tested on: Staphylococcus aureus FDA 209P JC-1; assay: Antibacterial activity (MIC), S. aureus FDA 209P JC-1; conditions: FDA209P, read-out: Minimum inhibitory concentration (MIC)
Method: as §1

[16] = tested on: Pseudomonas aeruginosa IFO 3445; assay: Antibacterial activity (MIC), P. aeruginosa IFO 3445; conditions: for MIC: Pseudomonas aeruginosa, IFO3445, Pseudomonas aeruginosa IFO 3445, Gram -, read-out: Minimum inhibitory concentration (MIC)
Method: as §1

Enterobacter cloacae 963 = assay: Antibacterial activity (MIC), Enterobacter cloacae 963
Method: as §1

Proteus vulgaris OX-19 = assay: Antibacterial activity (MIC), Proteus vulgaris OX-19; conditions: OX19; Proteus vulgaris OX-19, Gram -; read-out: Minimum inhibitory concentration (MIC)
Method: as §1

[17] = tested on: Citrobacter freundii NIHJ 10018-68; assay: Antibacterial activity (MIC), Citrobacter freundii NIHJ 10018-68; conditions: for MIC: Citrobacter freundii, NIHJ10018, Citrobacter freundii NIHJ 10018-68, Gram -, read-out: Minimum inhibitory concentration (MIC)
Method: as §1

[18] = tested on: Bacillus subtilis ATCC 6633; assay: Antibacterial activity (MIC), Bacillus subtilis ATCC 6633; conditions: for MIC: Bacillus subtilis, ATCC6633, Bacillus subtilis ATCC 6633, Gram +, read-out: Minimum inhibitory concentration (MIC)
Method: as §1

[19] = Salmonella typhimurium IID 971, Gram -
[20] = KC14, Escherichia coli KC-14, Gram -, read-out: Minimum inhibitory concentration (MIC)

| Compound | MIC [2] | MIC [3] | MIC [5] | MIC [8] | MIC [9] | MIC [11] | MIC [12] | MIC [13] | MIC (Shigella sonnei EW-33) | MIC [14] | MIC [16] | MIC (Proteus vulgaris OX-19) | MIC [17] | MIC [18] | MIC [7, 19] | MIC (Escherichia coli KC-14; [20]) | Minimum inhibitory concentration (MIC) [8] | also measured |
| --- | --- | --- | --- | --- | --- | --- | --- | --- | --- | --- | --- | --- | --- | --- | --- | --- | --- | --- |
| CC1CN(c2c(F)cc3c(=O)c(C(=O)O)c4scc5n4c3c2N(C)C5)CCN1 (centres unmarked) [Compound (D), 9,1-(Methylimino)methano-7-fluoro-8-(3-methyl-1-piperazinyl)-5-oxo-5H-thiazolo[3,2-a]quinoline-4-carboxylic acid] | 0.006 µg/mL (≈ 0.0149 µM) | 0.1 µg/mL (≈ 0.248 µM) | 0.025 µg/mL (≈ 0.0621 µM) | 0.1 µg/mL (≈ 0.248 µM) | 0.78 µg/mL (≈ 1.94 µM) | 0.2 µg/mL (≈ 0.497 µM) | 0.39 µg/mL (≈ 0.969 µM) | 0.39 µg/mL (≈ 0.969 µM) | 0.05 µg/mL (≈ 0.124 µM) | 0.39 µg/mL (≈ 0.969 µM) | 0.78 µg/mL (≈ 1.94 µM) | 0.006 µg/mL (≈ 0.0149 µM) | 0.39 µg/mL (≈ 0.969 µM) | 0.006 µg/mL (≈ 0.0149 µM) |  |  |  | MIC ([1]; IAM1296, read-out: Minimum inhibitory concentration (MIC)): 0.05 µg/mL (≈ 0.124 µM); MIC ([4]; Escherichia coli, NIHJJC2, read-out: Minimum inhibitory concentration (MIC)): 0.05 µg/mL (≈ 0.124 µM); MIC ([6]; ATCC13048, read-out: Minimum inhibitory concentration (MIC)): 0.05 µg/mL (≈ 0.124 µM); MIC [7]: 0.05 µg/mL (≈ 0.124 µM); MIC ([10]; Staphylococcus aureus, IID803, read-out: Minimum inhibitory concentration (MIC)): 0.05 µg/mL (≈ 0.124 µM); MIC (Escherichia coli KC-14; Escherichia coli, KC14, read-out: Minimum inhibitory concentration (MIC)): 0.05 µg/mL (≈ 0.124 µM); MIC ([15]; Staphylococcus aureus): 0.05 µg/mL (≈ 0.124 µM); MIC (Enterobacter cloacae 963; Enterobacter cloacae, 963, read-out: Minimum inhibitory concentration (MIC)): 0.05 µg/mL (≈ 0.124 µM) |
| CN1Cc2csc3c(C(=O)O)c(=O)c4cc(F)c(N5CCC(N)C5)c1c4n23 (centres unmarked) [(H), 9,1-(Methylimino)methano-7-fluoro-8-(3-amino-1-pyrrolidinyl)-5-oxo-5H-thiazolo[3,2-a]quinoline-4-carboxylic acid] | 0.006 µg/mL (≈ 0.0154 µM) | 0.05 µg/mL (≈ 0.129 µM) | 0.0125 µg/mL (≈ 0.0322 µM) | 0.05 µg/mL (≈ 0.129 µM) | 0.39 µg/mL (≈ 1 µM) | 0.1 µg/mL (≈ 0.257 µM) | 0.2 µg/mL (≈ 0.515 µM) | 0.1 µg/mL (≈ 0.257 µM) | 0.05 µg/mL (≈ 0.129 µM) | 0.2 µg/mL (≈ 0.515 µM) | 0.2 µg/mL (≈ 0.515 µM) | 0.0125 µg/mL (≈ 0.0322 µM) | 0.1 µg/mL (≈ 0.257 µM) | 0.006 µg/mL (≈ 0.0154 µM) | 0.05 µg/mL (≈ 0.129 µM) | 0.0125 µg/mL (≈ 0.0322 µM) |  | MIC ([1]; IAM1296, Staphylococcus epidermidis IAM-1296, Gram +, read-out: Minimum inhibitory concentration (MIC)): 0.05 µg/mL (≈ 0.129 µM); MIC ([4]; NIHJJC2, Escherichia coli NIHJ JC-2, Gram -, read-out: Minimum inhibitory concentration (MIC)): 0.05 µg/mL (≈ 0.129 µM); MIC ([6]; ATCC13048, Enterobacter aerogenes ATCC 13048, Gram -, read-out: Minimum inhibitory concentration (MIC)): 0.05 µg/mL (≈ 0.129 µM); MIC ([10]; IID803, Staphylococcus aureus IID 803, Gram +, read-out: Minimum inhibitory concentration (MIC)): 0.006 µg/mL (≈ 0.0154 µM); MIC ([15]; Staphylococcus aureus FDA 209P JC-1, Gram +): 0.025 µg/mL (≈ 0.0644 µM); MIC (Enterobacter cloacae 963; Enterobacter cloacae, 963, Enterobacter cloacae 963, Gram -, read-out: Minimum inhibitory concentration (MIC)): 0.05 µg/mL (≈ 0.129 µM) |
| CN1CCN(c2c(F)cc3c(=O)c(C(=O)O)c4scc5n4c3c2N(C)C5)CC1 [Compound (B), 9,1-(Methylimino)methano-7-fluoro-8-(4-methyl-1-piperazinyl)-5-oxo-5H-thiazolo [3,2-a]quinoline-4-carboxylic acid hydrochloride] |  |  | 0.05 µg/mL |  |  |  |  |  |  |  |  |  |  |  |  |  | 0.10 µg/mL | Minimum inhibitory concentration (MIC) ([1]; Staphylococcus epidermidis IAM-1296, Gram +, hydrochloride): 0.10 µg/mL; Minimum inhibitory concentration (MIC) ([13]; Serratia marcescens IAM 1184, Gram -, hydrochloride): 0.39 µg/mL; Minimum inhibitory concentration (MIC) (Shigella sonnei EW-33; Shigella sonnei EW-33, Gram -, hydrochloride): 0.05 µg/mL; Minimum inhibitory concentration (MIC) ([14]; Pseudomonas aeruginosa NCTC 10490, Gram -, hydrochloride): 0.39 µg/mL; Minimum inhibitory concentration (MIC) ([16]; Pseudomonas aeruginosa IFO 3445, Gram -, hydrochloride): 0.78 µg/mL; Minimum inhibitory concentration (MIC) (Enterobacter cloacae 963; Enterobacter cloacae 963, Gram -, hydrochloride): 0.10 µg/mL; Minimum inhibitory concentration (MIC) ([17]; Citrobacter freundii NIHJ 10018-68, Gram -, hydrochloride): 0.39 µg/mL; Minimum inhibitory concentration (MIC) ([18]; Bacillus subtilis ATCC 6633, Gram +, hydrochloride): 0.025 µg/mL |
| CCN1CCN(c2c(F)cc3c(=O)c(C(=O)O)c4scc5n4c3c2N(C)C5)CC1 [Compound (K), 9,1-(Methylimino)methano-7-fluoro-8-(4-ethyl-1-piperazinyl)-5-oxo-5H-thiazolo[3,2-a]quinoline-4-carboxylic acid hydrochloride] |  |  | 0.05 µg/mL |  |  |  |  |  |  |  |  |  |  |  | 0.05 µg/mL | 0.05 µg/mL | 0.20 µg/mL | Minimum inhibitory concentration (MIC) ([3]; Streptococcus faecalis IID 682, Gram +, hydrochloride): 0.20 µg/mL |
